# Test results published in patent US20120010178A1, “METHODS AND COMPOUNDS FOR TREATMENT OF NEURODEGENERATIVE DISORDERS” (PRESIDENT AND FELLOWS OF HARVARD COLLEGE, priority 2008, published 2012).
# Entries after “also recorded” stand apart in the source; their conditions may differ.
# Key:
# SMN = SMN immunofluorescence quantification (cytoplasm, nucleus, GEMs) in fibroblasts from SMA patients; assay type: cell-based, human; details: SMA patient fibroblasts
# Outline: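 SMN immunostained and imaged by automated confocal microscopy; per-cell cytoplasmic and nuclear SMN intensity and GEM number and intensity quantified. PFA fixation used for screening.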
# [1] = test system: SMN1 and SMN2 transcripts; experiment: qRT-PCR of SMN1 and SMN2 transcripts after PDGF-BB; assay type: cell-based, human; details: 50 ng/ml, over three days
# Procedure: Although there is much more known about growth factor specificity and downstream pathways that they activate, whether PDGF effect on SMN was mediated through the binding to the PDGFR was tested next. The SMN-increasing effects of PDGF were blocked by DMPQ and […], two small molecules inhibitors of the PDGF receptor (FIG. 21a). In addition PDGF neutralizing antibody titration were performed in the cells incubated with 20 ng/ml platelet-derived PDGF. Depending on the antibody concentration, gradient of SMN level decrease reaching 40% was observed (FIG. 21b). Moreover, as might be predicted, since there are appreciable levels of PDGF in the media serum in which the fibroblasts are normally maintained, simply adding PDGFR inhibitors DMPQ and AG-1296 to the media decreases the “basal” level of SMN in these cells down to 15-20%, (FIG. 22). […]
# […] was purified using Tri-Reagent (Sigma-Aldrich) protocol and quantified on the Nanodrop (Thermo Fisher Scientific). […] Synthesised cDNA was diluted 5 times and 1 μl of cDNA sample was PCR amplified using RT^2SYBR Green/ROX PCR Master Mix and primer assays for SMN1, SMN2, GAPDH (SABiosciences) genes on 7900HT Fast Real-Time PCR System (ABI). qPCR results were analyzed with RQ Manager Software (ABI) by […] quantification method.
substance,measurement,setting,value
PDGF-BB: human recombinant PDGF-BB,levels of cytoplasmic and nuclear SMN (in words),SMN; substance alone,strongest activator of SMN; also recorded: most potent growth factor that elevated SMN protein levels
same,Avg. SMN fold increase,SMN; human PDGF isoforms,2-2.3 fold
same,level of SMN1 and SMN2 transcripts,[1],little or no increase in SMN transcripts
